Consider 21 compounds from patent US20110117069A1, “METHOD FOR ACTIVATING REGULATORY T-CELLS” (IMTM GMBH, priority 2007, published 2011).

Structures are written as SMILES. Read-outs that look alike come from different tables or passages of the source.

Usually Ki stands for a dissociation constant, usually derived from enzyme kinetics or from competition with a known ligand. As a reminder, the IC50 is the concentration at which inhibition is half-maximal.

In one experiment the target is Argininyl AP (Homo sapiens, UniProt Q9H4A4). The note with it: α-Keto amides, cited from earlier work.
Sequence of Argininyl AP (Q9H4A4 whole entry): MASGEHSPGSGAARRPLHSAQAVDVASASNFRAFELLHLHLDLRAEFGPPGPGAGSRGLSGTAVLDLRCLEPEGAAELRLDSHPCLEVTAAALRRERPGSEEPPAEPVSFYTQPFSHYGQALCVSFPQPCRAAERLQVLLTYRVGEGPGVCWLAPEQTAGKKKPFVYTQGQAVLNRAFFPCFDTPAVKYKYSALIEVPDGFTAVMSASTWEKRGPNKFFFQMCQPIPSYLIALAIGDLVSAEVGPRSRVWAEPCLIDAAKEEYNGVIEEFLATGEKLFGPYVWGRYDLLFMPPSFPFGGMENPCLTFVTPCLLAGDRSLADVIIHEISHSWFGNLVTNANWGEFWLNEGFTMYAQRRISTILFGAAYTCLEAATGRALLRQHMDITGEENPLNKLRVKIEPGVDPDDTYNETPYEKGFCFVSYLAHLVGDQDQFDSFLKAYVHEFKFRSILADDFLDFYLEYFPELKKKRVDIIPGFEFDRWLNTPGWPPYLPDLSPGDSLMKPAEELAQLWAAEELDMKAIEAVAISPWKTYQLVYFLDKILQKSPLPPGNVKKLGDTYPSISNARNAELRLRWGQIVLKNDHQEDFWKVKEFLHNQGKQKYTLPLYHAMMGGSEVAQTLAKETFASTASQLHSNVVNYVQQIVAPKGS
The target in a further experiment is APN. The note with it: cited from earlier work; for Ki: α-Keto amides.
For a further experiment, the target named is LAP (Homo sapiens, UniProt P28838). The note with it: α-Aminoboric acids; cited from earlier work.
Sequence of LAP (P28838 whole entry): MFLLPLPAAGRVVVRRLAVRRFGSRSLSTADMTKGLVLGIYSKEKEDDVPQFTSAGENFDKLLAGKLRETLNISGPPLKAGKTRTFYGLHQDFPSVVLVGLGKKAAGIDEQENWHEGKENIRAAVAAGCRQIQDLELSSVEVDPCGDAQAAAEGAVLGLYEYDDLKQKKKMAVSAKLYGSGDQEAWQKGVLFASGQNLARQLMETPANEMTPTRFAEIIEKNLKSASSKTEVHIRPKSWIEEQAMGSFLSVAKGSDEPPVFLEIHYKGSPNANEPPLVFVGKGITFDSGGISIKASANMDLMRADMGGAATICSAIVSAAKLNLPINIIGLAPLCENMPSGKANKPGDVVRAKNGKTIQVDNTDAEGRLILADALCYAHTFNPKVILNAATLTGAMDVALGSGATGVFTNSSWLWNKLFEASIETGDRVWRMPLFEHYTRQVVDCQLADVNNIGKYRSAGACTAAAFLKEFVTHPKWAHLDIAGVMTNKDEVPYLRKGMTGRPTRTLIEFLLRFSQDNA
Experiment [1] relates to human regulatory T-cells (CD4+CD25+). Briefly: Co-culture of human effector cells (CD4+CD25-) and regulatory T-cells, proliferation by tritium thymidine inclusion. The note with it: for effect of the inhibitor on suppressive capacity of the Treg cells: 120 hours co-culture, anti-CD3. In kind it is cell-based. The text has this: Mononuclear cells were obtained from the peripheral blood of healthy donors by means of density-gradient centrifugation. The isolation of regulatory T-cells occurred by means of a two-stage magnetic separation:
In a first step CD4^+ T-cells were recovered by depletion of all CD4-negative cells [CD4 separation kit, Miltenyi Biotech, Bergisch-Gladbach, Germany]. The purity achieved regularly amounted to >95% CD4^+ T-cells.
In a second step CD4^+CD25^+ regulatory T-cells were in turn isolated from this population by magnetic column separation using CD25 marking [anti-CD25 MicroBeads, Miltenyi Biotech].
The CD4^+CD25^− fraction served as effector cell control.
The functional capacity of the regulatory T-cells was tested in a special co-culture. For this, 20 000 effector cells (CD4^+CD25^−) and regulatory T-cells (CD4^+CD25^+) in total were respectively cultivated in different quantitative ratios to one another over a period of 120 hours in microtest plates. A solid phase-bound anti-CD3 antibody [UCHT1, 0.25 μg/well] was used as activator of the T-cell stimulation.
The degree of proliferation of the cultivated cells was analysed on the basis of the DNA synthesis rate by means of tritium thymidine inclusion over 24 hours [n=5].
The degree of proliferation of the cultivated cells was analysed on the basis of the DNA synthesis rate by means of tritium thymidine inclusion over 24 hours [n=3].
Mononuclear cells were obtained from the peripheral blood of healthy donors by means of density-gradient centrifugation. A T-cell separation followed using nylon pad adherence.
The isolation of regulatory T-cells occurred by means of a two-stage magnetic separation:
The degree of proliferation of the cultivated cells was analysed on the basis of the DNA synthesis rate by means of tritium thymidine inclusion over 24 hours [n=10].

A further experiment concerns the target Cytosolic AP. The conditions noted are these: α-Keto amides; cited from earlier work.
The next experiment relates to colitis in Balb-c mice. Briefly: DSS colitis model in mice, disease activity index (DAI). The class given is in vivo. The conditions noted are these: single intravenous application on day 3, phebestin 0.5 mg/kg or 1 million cells/animal, up to 48 hours after application. The text has this: Colitis was triggered in Balb-c mice by the oral application of 3% dextran sodium sulphate solution (DSS). The degree of severity of the illness was established on the basis of a disease activity index (DAI). This consisted of the daily documentation of body weight loss, stool consistency, rectal bleeding, food and water intake, and is defined in the publication “Bank, U., Heimburg, A., Helmuth, M., Stefin, S., Lendeckel, U., Reinhold, D., Faust, J., Fuchs, P., Sens, B., Neubert, K., Täger, M., Ansorge, S.; Triggering endogenous immunosuppressive mechanisms by combined targeting of dipeptidyl peptidase IV (DPIV/CD26) and aminopeptidase N (APN/CD13)—A novel approach for the treatment of inflammatory bowel disease; International Immunopharmacology 6: 1925-1934 (2006)”.
Regulatory T-cells from peripheral venous blood were recovered in parallel by means of density-gradient centrifugation and magnetic separation using CD25 Microbeads.
On day 3, either the aminopeptidase N inhibitor phebestin (0.5 mg/kgKG), untreated CD4^+CD25^+ Treg cells (1 million cells/animal) or activated CD4^+CD25^+ Treg cells (1 million cells/animal) were applied once intravenously.
The activation of the Treg cells occurred ex situ using the method according to the invention by incubating the Treg cells for 45 minutes in the presence of phebestin [500 μg/ml].

For experiment [2], the system named is murine regulatory T-cells (CD4+CD25+). Briefly: Co-culture of murine effector cells (MNC-CD25-) and regulatory T-cells, proliferation by tritium thymidine inclusion. The conditions noted are these: 1.0 μM, after 5 days of co-culture, anti-CD3/anti-CD28. The class given is cell-based, mice. The procedure:
Mononuclear cells (MNC) were obtained from the peripheral blood of healthy mice by means of density-gradient centrifugation. The isolation of regulatory T-cells occurred using CD25 marking [anti-CD25 MicroBeads, Miltenyi Biotech]. The CD25^− MNC fraction served as effector cell control.
The functional capacity of the regulatory T-cells was tested in a special co-culture. For this, 20 000 effector cells (MNC-CD25^−) and regulatory T-cells (CD4^+CD25^+) in total were respectively cultivated in different quantitative ratios to one another over a period of 120 hours in microtest plates. The T-cell stimulation occurred by adding anti-CD3/anti-CD28 [1 μg/ml].
The degree of proliferation of the cultivated cells was analysed on the basis of the DNA synthesis rate by means of tritium thymidine inclusion over 24 hours [n=4].

[3] abbreviates: β-Aminothiols table, read-out: IC50 (nM) APN.
The mark [4] stands for this setting: α-Aminoboric acids, read-out: IC50, μM (APN).
Where [5] appears, read: N-Phenylphthalimides and -homophthalimides, enzyme not given, alanyl-aminopeptidase, read-out: IC50.

`CC(C)CCNC(=O)[C@@H](O)[C@H](N)CC(C)C`: the values for the Ki on Argininyl AP and at APN were > 300 µM and 24 µM, respectively.
In the case of `NC(CS)c1ccccc1` (centres unmarked), the IC50 with APN (setting [3]) is 25 nM.
On to `C[C@@H](N)B1OC(C)(C)C(C)(C)O1`, for which the IC50 on LAP was 0.35 µM; in the experiment on APN (setting [4]), 70 nM.
As to `N[C@H](Cc1ccccc1)B1OCCCO1`, the IC50 on LAP is 0.2 µM.
`NC(CS)COCc1ccccc1` (centres unmarked): in the experiment with APN (setting [3]), the half-inhibitory concentration (IC50) was 56 nM.
Consider `CC(C)CCNC(=O)[C@@H](O)[C@H](N)Cc1ccccc1`, for which the inhibitory constant (Ki) on APN was 20 µM.
Take `CC(C)c1cccc(C(C)C)c1N1C(=O)Cc2c(N)cccc2C1=O`: the half-maximal inhibitory concentration (IC50) in the experiment on APN (setting [5]) is 5400 nM.
Regarding `CCc1cccc(CC)c1-n1c(=O)[nH]c2ccccc2c1=O` [PAQ22, 3-(2,6-diethylphenyl-)quinazoline-2,4(1H3H)-dione], the “induction of suppressive capacity of the regulatory T-cells” value in experiment [1] (10% and 5% Treg cell components, after 5 days of co-culture) was “induced the suppressive capacity”.
Take `CSc1ccccc1N1C(=O)Cc2ccccc2C1=O`: the IC50 with APN (setting [5]) was 900 nM.
Consider `CC(C)(C)SCC(N)CS` (centres unmarked), for which the IC50 in the experiment with APN (setting [3]) was 40 nM.
Regarding `CC(C)CCNC(=O)C(=O)C(N)CC(C)C` (racemic), the inhibitory constant (Ki) is 6.5 µM on Argininyl AP ((R) isomer), 3.2 µM at Argininyl AP ((S) isomer), 18.6 µM on APN ((R) isomer) and 10.5 µM at APN ((S) isomer).
Regarding `CC(C)C[C@@H](N)B(O)O`, at LAP, the IC50 is 0.25 µM.
In the case of `CCOC(=O)[C@H](N)CS`, the IC50 in the experiment with APN (setting [3]) is 350 nM.
Take `CC(C)c1cccc(C(C)C)c1N1C(=O)Cc2c(O)cccc2C1=O`: the IC50 with APN (setting [5]) was 4300 nM.
Regarding `NC(CS)Cc1ccc(O)cc1` (centres unmarked), the IC50 in the experiment on APN (setting [3]) was 45 nM.
For the compound `CC(C)CCNC(=O)C(=O)[C@@H](N)Cc1ccccc1`, the Ki at Argininyl AP was 1.5 µM; on Cytosolic AP, 1 µM; at APN it was 2.5 µM.
Consider `NC(CS)CC1CCCCC1` (centres unmarked), for which the IC50 in the experiment on APN (setting [3]) is 45 nM.
Consider `CCCCC[C@H](CC(=O)NO)C(=O)N[C@H](C(=O)N1CCC[C@H]1CO)C(C)C` [actinonin], for which the “effect of the inhibitor on suppressive capacity of the Treg cells” value in experiment [1] (physiologically relevant range of 10:1 effector cells to Treg cells (10% Treg)) was “significant intensification of the suppressive capacity”; in experiment [1] (ratio of 1:1 of effector cells to Treg cells (50% Treg)), “no reliable effect”.
As for `CC(C)[C@H](NC(=O)[C@@H](O)[C@H](N)Cc1ccccc1)C(=O)N[C@@H](Cc1ccccc1)C(=O)O` [phebestin], the “activity of the disease (disease activity index) / clinical symptoms” value in the experiment on colitis in Balb-c mice is reported as “no effect”. The “induction of suppressive capacity of the regulatory T-cells” value in experiment [2] is reported as “induced the suppressive capacity of the regulatory T-cells to a significant degree”.
As to `CC(C)C[C@@H](N)B1OC(C)(C)C(C)(C)O1`, the values for the IC50 on LAP and in the experiment on APN (setting [4]) were 0.25 µM and 74 nM, respectively.
For the compound `CC1(C)OB([C@H](N)Cc2ccccc2)OC1(C)C`, the IC50 on LAP was 0.2 µM; with APN (setting [4]), 50 nM.
